Test system: 624824-186-R-J3-PDC multicell spheroids, viability
Experiment: Anticancer human tumor 624824-186-R-J3-PDC patient-derived colon adenocarcinoma cell line growth inhibition [PI3K]
Settings: for viability, T/C: stronger effect = lower value
Outline: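 Agents were dosed from a top concentration near clinical Cmax (otherwise 10 microM) in half-log decrements, alone or combined with PI3K inhibitors. The spheroids contain tumor cells plus endothelial (HUVEC) and MSC stroma; viability is measured.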
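Further: spheroids exposed to agents for seven days before luminescence read.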
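Wherever viability, T/C is given: luminescent signal used as a stand-in for spheroid viability; percent viability relative to DMSO vehicle control wells taken as 100%.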

CCCS(=O)(=O)Nc1ccc(F)c(C(=O)c2c[nH]c3ncc(-c4ccc(Cl)cc4)cc23)c1F + COc1c(OCCCN2CCOCC2)ccc2c3n(c(=NC(=O)c4cnc(N)nc4)nc12)CCN3
IC50 (curve of first compound, second compound 0.00316 µM): 5.31 µM
IC50 (curve of first compound, second compound 0.01 µM): 3.71 µM
IC50 (curve of first compound, second compound 0.0316 µM): 1.87 µM
IC50 (curve of first compound, second compound 0.1 µM): 0.331 µM
IC50 (curve of first compound, second compound 0.316 µM): < 0.0316 µM
IC50 (curve of first compound, second compound 1 µM): < 0.0316 µM
viability, T/C (second compound 0.00316 µM, first compound 0.0316 µM): 87.3%
viability, T/C (second compound 0.00316 µM, first compound 0.1 µM): 103%
viability, T/C (second compound 0.00316 µM, first compound 0.316 µM): 114%
viability, T/C (second compound 0.00316 µM, first compound 1 µM): 96.9%
viability, T/C (second compound 0.00316 µM, first compound 3.16 µM): 82.5%
viability, T/C (second compound 0.00316 µM, first compound 10 µM): 10.3%
viability, T/C (second compound 0.01 µM, first compound 0.0316 µM): 102%
viability, T/C (second compound 0.01 µM, first compound 0.1 µM): 102%
viability, T/C (second compound 0.01 µM, first compound 0.316 µM): 84.8%
viability, T/C (second compound 0.01 µM, first compound 1 µM): 74.8%
viability, T/C (second compound 0.01 µM, first compound 3.16 µM): 61.5%
viability, T/C (second compound 0.01 µM, first compound 10 µM): 13.6%
viability, T/C (second compound 0.0316 µM, first compound 0.0316 µM): 95.7%
viability, T/C (second compound 0.0316 µM, first compound 0.1 µM): 86.3%
viability, T/C (second compound 0.0316 µM, first compound 0.316 µM): 65.4%
viability, T/C (second compound 0.0316 µM, first compound 1 µM): 67%
viability, T/C (second compound 0.0316 µM, first compound 3.16 µM): 42.6%
viability, T/C (second compound 0.0316 µM, first compound 10 µM): 16.1%
viability, T/C (second compound 0.1 µM, first compound 0.0316 µM): 74.7%
viability, T/C (second compound 0.1 µM, first compound 0.1 µM): 66%
viability, T/C (second compound 0.1 µM, first compound 0.316 µM): 46.4%
viability, T/C (second compound 0.1 µM, first compound 1 µM): 37.7%
viability, T/C (second compound 0.1 µM, first compound 3.16 µM): 27.5%
viability, T/C (second compound 0.1 µM, first compound 10 µM): 9.08%
viability, T/C (second compound 0.316 µM, first compound 0.0316 µM): 44%
viability, T/C (second compound 0.316 µM, first compound 0.1 µM): 37.5%
viability, T/C (second compound 0.316 µM, first compound 0.316 µM): 31.8%
viability, T/C (second compound 0.316 µM, first compound 1 µM): 24.1%
viability, T/C (second compound 0.316 µM, first compound 3.16 µM): 17.2%
viability, T/C (second compound 0.316 µM, first compound 10 µM): 8.93%
viability, T/C (second compound 1 µM, first compound 0.0316 µM): 29%
viability, T/C (second compound 1 µM, first compound 0.1 µM): 27.1%
viability, T/C (second compound 1 µM, first compound 0.316 µM): 20.4%
viability, T/C (second compound 1 µM, first compound 1 µM): 17.2%
viability, T/C (second compound 1 µM, first compound 3.16 µM): 12.5%
viability, T/C (second compound 1 µM, first compound 10 µM): 6.57%

CNC(=O)c1ccc(N2C(=S)N(c3ccc(C#N)c(C(F)(F)F)c3)C(=O)C2(C)C)cc1F
viability, T/C (compound 0.0316 µM): 103% [middle of 4 runs]
viability, T/C (compound 0.1 µM): 102% [middle of 4 runs]
viability, T/C (compound 0.316 µM): 107% [middle of 4 runs]
viability, T/C (compound 1 µM): 104% [middle of 4 runs]
viability, T/C (compound 3.16 µM): 106% [middle of 4 runs]
viability, T/C (compound 10 µM): 104% [middle of 4 runs]
IC50 (curve of compound): > 10 µM
